Data reported in PubChem BioAssay (NCI).
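These data come from cells grown in 96-well plates and exposed to compound for 48 hours at five concentrations. At the TGI there is no net growth.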

Test system: LOX IMVI melanoma
Assay: NCI tumour cell line growth inhibition, 48 h

SMILES	TGI [µM]
COC(=O)[C@@H]1C[C@@]23CCCN4CC[C@@]5(c6cccc(OC)c6N(C=O)[C@]15CC2)[C@@H]43	> 100

Test system: HS 578T breast
Assay: NCI tumour cell line growth inhibition, 48 h

SMILES	TGI [µM]
NCCCCCCn1c(-c2ccc(Br)cc2)csc1=Nc1ccccc1	35.6
CCc1c(-c2ccc(OC)cc2)c(=O)oc2cc(O)ccc12	> 100
COc1ccc2c(c1)[C@@H]1c3cc(OC)c(OC)cc3CCN1CCC2	> 100
CCN(CC)CCn1ncc2c3c(=O)c4cccnc4n(CCN(CC)CC)c3ccc21	> 10
COC(=O)[C@@H]1C[C@@]23CCCN4CC[C@@]5(c6cccc(OC)c6N(C=O)[C@]15CC2)[C@@H]43	> 100

Test system: UO-31 renal
Assay: NCI tumour cell line growth inhibition, 48 h

SMILES	TGI [µM]
NCCCCCCn1c(-c2ccc(Br)cc2)csc1=Nc1ccccc1	22.1
CCc1c(-c2ccc(OC)cc2)c(=O)oc2cc(O)ccc12	68.4
COc1ccc2c(c1)[C@@H]1c3cc(OC)c(OC)cc3CCN1CCC2	> 100
COC(=O)[C@@H]1C[C@@]23CCCN4CC[C@@]5(c6cccc(OC)c6N(C=O)[C@]15CC2)[C@@H]43	> 100

Test system: TK-10 renal
Assay: NCI tumour cell line growth inhibition, 48 h

SMILES	TGI [µM]
NCCCCCCn1c(-c2ccc(Br)cc2)csc1=Nc1ccccc1	26.7
COc1ccc2c(c1)[C@@H]1c3cc(OC)c(OC)cc3CCN1CCC2	> 100
CCN(CC)CCn1ncc2c3c(=O)c4cccnc4n(CCN(CC)CC)c3ccc21	> 10
COC(=O)[C@@H]1C[C@@]23CCCN4CC[C@@]5(c6cccc(OC)c6N(C=O)[C@]15CC2)[C@@H]43	> 100

Test system: RPMI-8226 leukemia
Assay: NCI tumour cell line growth inhibition, 48 h

SMILES	TGI [µM]
NCCCCCCn1c(-c2ccc(Br)cc2)csc1=Nc1ccccc1	16.2
CCc1c(-c2ccc(OC)cc2)c(=O)oc2cc(O)ccc12	47.6
COc1ccc2c(c1)[C@@H]1c3cc(OC)c(OC)cc3CCN1CCC2	> 100
CCN(CC)CCn1ncc2c3c(=O)c4cccnc4n(CCN(CC)CC)c3ccc21	> 10
COC(=O)[C@@H]1C[C@@]23CCCN4CC[C@@]5(c6cccc(OC)c6N(C=O)[C@]15CC2)[C@@H]43	> 100

Test system: DU-145 prostate
Assay: NCI tumour cell line growth inhibition, 48 h

SMILES	TGI [µM]
NCCCCCCn1c(-c2ccc(Br)cc2)csc1=Nc1ccccc1	26.3
CCc1c(-c2ccc(OC)cc2)c(=O)oc2cc(O)ccc12	> 100
COc1ccc2c(c1)[C@@H]1c3cc(OC)c(OC)cc3CCN1CCC2	> 100
CCN(CC)CCn1ncc2c3c(=O)c4cccnc4n(CCN(CC)CC)c3ccc21	> 10
COC(=O)[C@@H]1C[C@@]23CCCN4CC[C@@]5(c6cccc(OC)c6N(C=O)[C@]15CC2)[C@@H]43	> 100

Test system: CCRF-CEM leukemia
Assay: NCI tumour cell line growth inhibition, 48 h

SMILES	TGI [µM]
NCCCCCCn1c(-c2ccc(Br)cc2)csc1=Nc1ccccc1	21.6
CCc1c(-c2ccc(OC)cc2)c(=O)oc2cc(O)ccc12	> 100
COc1ccc2c(c1)[C@@H]1c3cc(OC)c(OC)cc3CCN1CCC2	> 100
CCN(CC)CCn1ncc2c3c(=O)c4cccnc4n(CCN(CC)CC)c3ccc21	> 10
COC(=O)[C@@H]1C[C@@]23CCCN4CC[C@@]5(c6cccc(OC)c6N(C=O)[C@]15CC2)[C@@H]43	> 100

Test system: T-47D breast
Assay: NCI tumour cell line growth inhibition, 48 h

SMILES	TGI [µM]
NCCCCCCn1c(-c2ccc(Br)cc2)csc1=Nc1ccccc1	18.3
CCc1c(-c2ccc(OC)cc2)c(=O)oc2cc(O)ccc12	> 100
COc1ccc2c(c1)[C@@H]1c3cc(OC)c(OC)cc3CCN1CCC2	> 100
CCN(CC)CCn1ncc2c3c(=O)c4cccnc4n(CCN(CC)CC)c3ccc21	> 10
COC(=O)[C@@H]1C[C@@]23CCCN4CC[C@@]5(c6cccc(OC)c6N(C=O)[C@]15CC2)[C@@H]43	> 100

Test system: IGROV1 ovarian
Assay: NCI tumour cell line growth inhibition, 48 h

SMILES	TGI [µM]
CCc1c(-c2ccc(OC)cc2)c(=O)oc2cc(O)ccc12	> 100
COc1ccc2c(c1)[C@@H]1c3cc(OC)c(OC)cc3CCN1CCC2	> 100
CCN(CC)CCn1ncc2c3c(=O)c4cccnc4n(CCN(CC)CC)c3ccc21	> 10
COC(=O)[C@@H]1C[C@@]23CCCN4CC[C@@]5(c6cccc(OC)c6N(C=O)[C@]15CC2)[C@@H]43	> 100

Test system: HL-60(TB) leukemia
Assay: NCI tumour cell line growth inhibition, 48 h

SMILES	TGI [µM]
CCc1c(-c2ccc(OC)cc2)c(=O)oc2cc(O)ccc12	32.6
COc1ccc2c(c1)[C@@H]1c3cc(OC)c(OC)cc3CCN1CCC2	> 100
CCN(CC)CCn1ncc2c3c(=O)c4cccnc4n(CCN(CC)CC)c3ccc21	> 10
COC(=O)[C@@H]1C[C@@]23CCCN4CC[C@@]5(c6cccc(OC)c6N(C=O)[C@]15CC2)[C@@H]43	> 100

Test system: HOP-62 NSCLC
Assay: NCI tumour cell line growth inhibition, 48 h

SMILES	TGI [µM]
NCCCCCCn1c(-c2ccc(Br)cc2)csc1=Nc1ccccc1	32.4
CCc1c(-c2ccc(OC)cc2)c(=O)oc2cc(O)ccc12	> 100
COc1ccc2c(c1)[C@@H]1c3cc(OC)c(OC)cc3CCN1CCC2	> 100
CCN(CC)CCn1ncc2c3c(=O)c4cccnc4n(CCN(CC)CC)c3ccc21	> 10
COC(=O)[C@@H]1C[C@@]23CCCN4CC[C@@]5(c6cccc(OC)c6N(C=O)[C@]15CC2)[C@@H]43	> 100

Test system: U251 CNS
Assay: NCI tumour cell line growth inhibition, 48 h

SMILES	TGI [µM]
NCCCCCCn1c(-c2ccc(Br)cc2)csc1=Nc1ccccc1	20.9
CCc1c(-c2ccc(OC)cc2)c(=O)oc2cc(O)ccc12	> 100
COc1ccc2c(c1)[C@@H]1c3cc(OC)c(OC)cc3CCN1CCC2	> 100
CCN(CC)CCn1ncc2c3c(=O)c4cccnc4n(CCN(CC)CC)c3ccc21	> 10
COC(=O)[C@@H]1C[C@@]23CCCN4CC[C@@]5(c6cccc(OC)c6N(C=O)[C@]15CC2)[C@@H]43	> 100

Test system: KM12 colon
Assay: NCI tumour cell line growth inhibition, 48 h

SMILES	TGI [µM]
NCCCCCCn1c(-c2ccc(Br)cc2)csc1=Nc1ccccc1	19.7
CCc1c(-c2ccc(OC)cc2)c(=O)oc2cc(O)ccc12	> 100
COc1ccc2c(c1)[C@@H]1c3cc(OC)c(OC)cc3CCN1CCC2	> 100
CCN(CC)CCn1ncc2c3c(=O)c4cccnc4n(CCN(CC)CC)c3ccc21	> 10
COC(=O)[C@@H]1C[C@@]23CCCN4CC[C@@]5(c6cccc(OC)c6N(C=O)[C@]15CC2)[C@@H]43	> 100

Test system: NCI-H23 lung
Assay: NCI tumour cell line growth inhibition, 48 h

SMILES	TGI [µM]
NCCCCCCn1c(-c2ccc(Br)cc2)csc1=Nc1ccccc1	29.8
CCc1c(-c2ccc(OC)cc2)c(=O)oc2cc(O)ccc12	> 100
COc1ccc2c(c1)[C@@H]1c3cc(OC)c(OC)cc3CCN1CCC2	> 100
CCN(CC)CCn1ncc2c3c(=O)c4cccnc4n(CCN(CC)CC)c3ccc21	> 10
COC(=O)[C@@H]1C[C@@]23CCCN4CC[C@@]5(c6cccc(OC)c6N(C=O)[C@]15CC2)[C@@H]43	> 100

Test system: A549 NSCLC
Assay: NCI tumour cell line growth inhibition, 48 h

SMILES	TGI [µM]
NCCCCCCn1c(-c2ccc(Br)cc2)csc1=Nc1ccccc1	25
CCc1c(-c2ccc(OC)cc2)c(=O)oc2cc(O)ccc12	> 100
COc1ccc2c(c1)[C@@H]1c3cc(OC)c(OC)cc3CCN1CCC2	> 100
CCN(CC)CCn1ncc2c3c(=O)c4cccnc4n(CCN(CC)CC)c3ccc21	> 10
COC(=O)[C@@H]1C[C@@]23CCCN4CC[C@@]5(c6cccc(OC)c6N(C=O)[C@]15CC2)[C@@H]43	> 100

Test system: MDA-MB-231 breast
Assay: NCI tumour cell line growth inhibition, 48 h

SMILES	TGI [µM]
NCCCCCCn1c(-c2ccc(Br)cc2)csc1=Nc1ccccc1	30.3
CCc1c(-c2ccc(OC)cc2)c(=O)oc2cc(O)ccc12	> 100
COc1ccc2c(c1)[C@@H]1c3cc(OC)c(OC)cc3CCN1CCC2	> 100
CCN(CC)CCn1ncc2c3c(=O)c4cccnc4n(CCN(CC)CC)c3ccc21	> 10
COC(=O)[C@@H]1C[C@@]23CCCN4CC[C@@]5(c6cccc(OC)c6N(C=O)[C@]15CC2)[C@@H]43	> 100
